In US4892736A, “Intra-pocket drug delivery devices for treatment of periodontal diseases” (The Forsyth Dental Infirmary for Children, priority 1988, dated 1990):
Structures can show the parent of a compound that is named as a salt.

Test system: cultivable periodontal microorganisms
Assay: Concentration of tetracycline necessary to suppress growth of all cultivable periodontal microorganisms (agar plates)
Type: cell-based
Settings: anaerobic, 35° C., 5 to 7 days
Procedure: Samples containing periodontal organisms taken from deep periodontal pockets of 5 patients were transferred to 10 ml of pre-reduced Ringer's solution, dispersed by 10 seconds of sonic oscillation at an amplitude of 10 microns, and dilutions of 1:20, 1:100, and 1:1000 were prepared. One-tenth milliliter of each dilution was streaked on trypticase soy agar containing 5% sheep blood and 0.3 μg/ml menadione in petri dishes. Identical plates were prepared containing 1, 8, 32, and 64 micrograms/milliliter of tetracycline hydrochloride. Inoculated plates were incubated at 35° C. in an anaerobic atmosphere at 80% nitrogen, 10% hydrogen, and 10% carbon dioxide for 5 to 7 days. Plates from dilutions providing separated colony growth were selected for counting to determine the total colony forming units on primary medium and each associated tetracycline-containing medium. Percentages of organisms grown at each concentration were computed. Values of 21.2%, 3.6%, 0.08%, and 0% were found on plates containing 1, 8, 32, and 64 micrograms/milliliter tetracycline respectively. These observations indicate that no cultivable periodontal organisms grow at tetracycline concentrations of 64 micrograms/milliliter, thereby establishing the primary design parameter for a local drug delivery system for periodontal therapy which would suppress growth of all cultivable periodontal microorganisms with continuous exposure of the organisms to tetracycline.

**Q.** For `CN(C)C1C(=O)C(C(N)=O)=C(O)C2(O)C(=O)C3=C(O)c4c(O)cccc4C(C)(O)C3CC12` (centres unmarked) [tetracycline, tetracycline hydrochloride], which activity at 1 µg/mL (168 h, 1 microgram/milliliter tetracycline, % of colony forming units on primary medium, read-out: Percentage of organisms grown) is on record?
**A.** 21.2%

**Q.** What about the activity at 8 µg/mL (168 h, 8 micrograms/milliliter tetracycline, % of colony forming units on primary medium, read-out: Percentage of organisms grown) of the same molecule?
**A.** 3.6%

**Q.** And the activity at 32 µg/mL (168 h, 32 micrograms/milliliter tetracycline, % of colony forming units on primary medium, read-out: Percentage of organisms grown)?
**A.** 0.08%

**Q.** And the activity at 64 µg/mL (168 h, 64 micrograms/milliliter tetracycline, % of colony forming units on primary medium, read-out: Percentage of organisms grown)?
**A.** 0%

**Q.** And the MIC (tested 1, 8, 32, 64 micrograms/milliliter, read-out: Concentration at which no cultivable periodontal organisms grow)?
**A.** 64 µg/mL
